Experimental data from patent publication US8536337B2, “Solid forms of methyl (7aS,2′S)-2-(2-chlorophenyl)-2-(2,4,5,6,7,7a-hexahydrothieno[3,2-c]-5-pyridin-2-one)acetate” (IPCA Laboratories Limited, priority 2012, dated 2013).
Where a name gives a salt, the structure may show the parent alone. Read-outs that look alike come from different tables or passages of the source.

How the values were obtained:
[1] = test system: ADP induced platelet aggregation; assay: Measurement of platelet aggregation with ADP, ex vivo whole blood impedance aggregometry after oral dosing; type: in vivo, rat; conditions: SD rats, blood 4 h after dosing, 10 μM ADP; for % aggregation: vehicle control = 100%
Procedure: Measurement of Platelet Aggregation with ADP
The activity on the aggregation of plates induced by ADP or collagen was determined ex-vivo.
The products as a suspension in 5% Gum Arabica (aq.) were administered by oral route to groups of six male rats of the SD strain, weighing 250-300 g. After 4 hours of the administration, 2 ml of blood is collected into the heparinized tubes by puncture of retro-orbital sinus. 0.5 ml of the anticoagulated blood is diluted with an equal volume of isotonic saline solution and incubated at 37° C. for 10 minutes. To the incubated whole blood, 10 μM ADP is added and the change in impedance (Ω), which reflects platelet aggregation, is recorded for 8 minutes with Chronolog Whole Blood Aggregometer (Model 592, Chrono-log Corp., USA). The percentage inhibition of platelet aggregation is calculated by the following formula considering the vehicle control reading as 100%:

[2] = test system: FeCl3 induced arterial thrombus formation (common carotid artery); assay: FeCl3 induced Arterial Thrombosis Model; type: in vivo, rat; conditions: SD rats, 30% FeCl3 1 hour post dosing
Procedure: 2. Anti-Thrombotic Activity
The antithrombotic activity has also been studied in FeCl3 induced Arterial Thrombosis Model according to standard procedures reported by William A. Schumacher et al., 2007 (Journal of Pharmacology and Experimental Therapeutics, 322 (I): 369-377) and Takao Tanaka et al. 2000 (European Journal of Pharmacology, 401: 413-418).
The products were dissolved in DMSO (1 mg/ml) and diluted in PEG/Water (Ratio: DMSO:PEG:Water=5:50:45), and were administered by the per oral mute to groups of 8 male rats of the SD strain, weighing 250-300 g after overnight fast. 1 hour post dosing, rats were anesthetized with Ketamine (100 mg/kg; i.p.), Xylazine (10 mg/kg; i.p) and placed on a heating pad. After aseptic preparation of the tracheal and scapular region of the rats, a midline incision of the tracheal area was made and a blunt dissection was performed to expose the common carotid artery. Approximately 2 cm of the common carotid artery was freed from the connective tissues, jugular veins, and vagus nerve and a ˜3 mm filter paper, briefly soaked in 30% FeCl3 solution, was placed around the artery for 10 min. The artery was isolated after 15 mins of the removal of filter paper and the rat was euthanized. Thrombus developed was scraped out from the extracted artery and kept for drying for 24 hours. The wet and dry weight of thrombus was recorded and expressed as mg weight of thrombus per kg body weight. % inhibition of the thrombus formation is calculated using the formula: […]

[3] = Stability of the isolated isomer against conversion into mixture of isomers (keto-enol tautomerism); type: physicochemical; conditions: normal conditions, even in solutions
Excerpt: The present invention is realized by way of preferential stereoselective crystallization of one of the isomer {(7aS,2′S)-isomer} from a mixture of isomers with or without dynamic conversion of counter stereo-isomer {(7aR,2′S)-isomer} through enol form. 2-oxo-clopidogrel can exists in three isomeric forms, namely structures of formula II, Formula VI and Formula VII. […] Once the double bond in the ring flips between the tetrahydropyridine nucleus and the thiophene ring, it destroys the chiral centre at 7a position, especially during its formation, resulting in mixture of isomers. Therefore, to date, there are no reports available to exclusively isolate one of the isomer selectively. […] The compounds of the present invention are substantially free of other isomers for example, compound of Formula VI, and Formula VII, apart from isomer of Formula IIB. Substantially free herein means the levels of these compounds individually or cumulatively are less than 10%, preferably less than, 5%, more preferably less than 3%, still more preferably, less than 1.0%.

[4] = test system: recurrent ischemic events / major bleeding events; conditions: cited from earlier work
[5] = test system: ADP induced platelet aggregation; conditions: cited from earlier work; for time until 50% inhibition of ADP induced platelet aggregation is reached: LTA, 5 μM ADP ex-vivo
[6] = cited from earlier work
[7] = test system: rat; conditions: in rat; cited from earlier work
[8] = 2.2 mg/kg p.o. (1.98 mg/kg base)
[9] = 1.3 mg/kg p.o. (1.17 mg/kg base)
[10] = patients at high risk of vascular events
[11] = combined with Aspirin therapy in patients with ACS

## COC(=O)[C@H](c1ccccc1Cl)N1CCC2SC(=O)C=C2C1.Cl (stereo partly drawn) [(2'S)-2-oxoclopidogrel hydrochloride]
[1]; [8]
  % inhibition: 48.04%
  % aggregation: 51.96%

## COC(=O)C(c1ccccc1Cl)N1CCC2SC(=O)C=C2C1 [(7aS,2'S)-2-oxoclopidogrel bisulphate, Methyl (7aS,2′S)-2-(2-chlorophenyl)-2-(2,4,5,6,7,7a-hexahydrothieno[3,2-c]-5-pyridin-2-one)acetate hydrogen sulfate]
[2]; [9]
  % Inhibition of Thrombus Formation (Mean ± SEM): 76 ± 3.3%
  Dry weight of Thrombus (mg/kg) (Mean ± SEM): 0.98 ± 0.1 mg/kg
[1]; 2.5 mg/kg p.o. (1.9 mg/kg base)
  % aggregation: 14.57%
[1]; 3.5 mg/kg p.o. (2.7 mg/kg base)
  % aggregation: 9.14%
[1]; Rattus norvegicus, Platelet, po, 2.5 mg/kg p.o. (1.9 mg/kg base)
  inhibition at 2.5 mg/kg: 85.4%
[1]; Rattus norvegicus, Platelet, po, 3.5 mg/kg p.o. (2.7 mg/kg base)
  inhibition at 3.5 mg/kg: 90.9%

## COC(=O)C(c1ccccc1Cl)N1CCC2SC(=O)C=C2C1 [(7aS,2′S)-2-oxoclopidogrel, Methyl (7aS,2′S)-2-(2-chlorophenyl)-2-(2,4,5,6,7,7a-hexahydrothieno[3,2-c]-5-pyridin-2-one)acetate]
[3]
  stability against conversion into mixture of isomers: stable and resistant to conversion into mixture

## CC(=O)Oc1ccccc1C(=O)O [Aspirin]
[4]; [10]
  Absolute risk increase (ARI), major bleeding events: about 0.5%
  absolute risk reduction (ARR), recurrent ischemic events: about 2%
  increase in the odds of major bleeding events: about 60%
  reduction of the risk of recurrent ischemic events: 22%

## COC(=O)[C@H](c1ccccc1Cl)N1CCc2sccc2C1 [Clopidogrel bisulphate]
[2]; 4 mg/kg p.o. (3.06 mg/kg base)
  % Inhibition of Thrombus Formation (Mean ± SEM): 73 ± 5.3%
  Dry weight of Thrombus (mg/kg) (Mean ± SEM): 1.10 ± 0.2 mg/kg
[1]; 25 mg/kg p.o. (19.15 mg/kg base)
  % aggregation: 22.85%
[1]; Rattus norvegicus, Platelet, po, 25 mg/kg p.o. (19.15 mg/kg base)
  inhibition at 25 mg/kg: 77.2%

## CC(=O)Oc1cc2c(s1)CCN(C(C(=O)C1CC1)c1ccccc1F)C2 (stereo not drawn) [Prasugrel hydrochloride]
[1]; 2.2 mg/kg p.o. (2 mg/kg base)
  % aggregation: 18.93%
[1]; Rattus norvegicus, Platelet, po, 2.2 mg/kg p.o. (2 mg/kg base)
  inhibition at 2.2 mg/kg: 81.1%

## COC(=O)[C@H](c1ccccc1Cl)N1CCc2sccc2C1 [clopidogrel, (+)-(S)-methyl2-(2-chlorophenyl)-2-(6,7-dihydrothieno[3,2-c]pyridin-5(4H)-yl)acetate]
[5]; 900 mg, at 5 μM ADP
  inhibition of ADP induced platelet aggregation: 60%
[5]; 900 mg, induced by 20 μM of ADP (ex vivo)
  inhibition of platelet aggregation: less than 50%
[5]; dose 600 mg
  time until 50% inhibition of ADP induced platelet aggregation is reached: 2 h
[5]; loading dose of 300 mg
  time until 50% inhibition of ADP induced platelet aggregation is reached: 4 to 6 h
[6]
  share converted to clopidogrel acid in vivo: 90%
[7]
  lethal dose: about 5000 mg per kg
[4]; [11]
  ARR, recurrent ischemic events: about 2.1%
  further reduction of the risk of recurrent ischemic events: 20%
